Assay results published in ChEMBL document CHEMBL1139328, “4-Fluoro-N-butylphenylacetamide (H6) inhibits cell growth via cell-cycle arrest and apoptosis in human cervical cancer cells” (2009).
Activity calls are given as the source filed them. The calls are words filed in the database; no cut-off is given here.

Key:
HeLa [1] = test: Cytotoxicity against human HeLa cells by trypan blue exclusion method; assay type: functional, cell-based
Ca-Ski [2] = test: Cytotoxicity against human CaSki cells by trypan blue exclusion method; assay type: functional, cell-based; settings: TDE = time-dependent effect
Ca-Ski [3] = test: Cell cycle arrest in human CaSki cells assessed as accumulation at G0/G1 phase after 8 hrs by flow cytometry; assay type: functional
Ca-Ski [4] = test: Cell cycle arrest in human CaSki cells assessed as accumulation at S phase after 8 hrs by flow cytometry; assay type: functional
Ca-Ski [5] = test: Cell cycle arrest in human CaSki cells assessed as accumulation at G2/M phase after 8 hrs by flow cytometry; assay type: functional
Ca-Ski [6] = test: Induction of apoptosis in human CaSki cells at 1 mM after 8 hrs by TUNEL/DAPI double staining; assay type: functional
Ca-Ski [7] = test: Cell cycle arrest in human CaSki cells assessed as accumulation at G0/G1 phase after 24 hrs by flow cytometry; assay type: functional
Ca-Ski [8] = test: Cell cycle arrest in human CaSki cells assessed as accumulation at S phase after 24 hrs by flow cytometry; assay type: functional
Ca-Ski [9] = test: Cell cycle arrest in human CaSki cells assessed as accumulation at G2/M phase after 24 hrs by flow cytometry; assay type: functional
Ca-Ski [10] = test: Induction of apoptosis in human CaSki cells at 1 mM after 24 hrs by TUNEL/DAPI double staining; assay type: functional
Ca-Ski [11] = test: Cell cycle arrest in human CaSki cells assessed as accumulation at G0/G1 phase after 48 hrs by flow cytometry; assay type: functional
Ca-Ski [12] = test: Cell cycle arrest in human CaSki cells assessed as accumulation at S phase after 48 hrs by flow cytometry; assay type: functional
Ca-Ski [13] = test: Cell cycle arrest in human CaSki cells assessed as accumulation at G2/M phase after 48 hrs by flow cytometry; assay type: functional
Ca-Ski [14] = test: Induction of apoptosis in human CaSki cells at 1 mM after 48 hrs by TUNEL/DAPI double staining; assay type: functional
HeLa [15] = test: Cell cycle arrest in human HeLa cells assessed as accumulation at G0/G1 phase after 8 hrs by flow cytometry; assay type: functional
HeLa [16] = test: Cell cycle arrest in human HeLa cells assessed as accumulation at S phase after 8 hrs by flow cytometry; assay type: functional
HeLa [17] = test: Cell cycle arrest in human HeLa cells assessed as accumulation at G2/M phase after 8 hrs by flow cytometry; assay type: functional
HeLa [18] = test: Induction of apoptosis in human HeLa cells at 1 mM after 8 hrs by TUNEL/DAPI double staining; assay type: functional
HeLa [19] = test: Cell cycle arrest in human HeLa cells assessed as accumulation at G0/G1 phase after 24 hrs by flow cytometry; assay type: functional
HeLa [20] = test: Cell cycle arrest in human HeLa cells assessed as accumulation at S phase after 24 hrs by flow cytometry; assay type: functional
HeLa [21] = test: Cell cycle arrest in human HeLa cells assessed as accumulation at G2/M phase after 24 hrs by flow cytometry; assay type: functional
HeLa [22] = test: Induction of apoptosis in human HeLa cells at 1 mM after 24 hrs by TUNEL/DAPI double staining; assay type: functional
HeLa [23] = test: Cell cycle arrest in human HeLa cells assessed as accumulation at G0/G1 phase after 48 hrs by flow cytometry; assay type: functional
HeLa [24] = test: Cell cycle arrest in human HeLa cells assessed as accumulation at S phase after 48 hrs by flow cytometry; assay type: functional
HeLa [25] = test: Cell cycle arrest in human HeLa cells assessed as accumulation at G2/M phase after 48 hrs by flow cytometry; assay type: functional
HeLa [26] = test: Induction of apoptosis in human HeLa cells at 1 mM after 48 hrs by TUNEL/DAPI double staining; assay type: functional
Ca-Ski [27] = test: Increase in p53 protein level in human CaSki cells at 1 mM after 24 hrs by Western blot; assay type: functional, cell-based
HeLa [28] = test: Increase in p53 protein level in human HeLa cells at 1 mM after 24 hrs by Western blot; assay type: functional, cell-based
Ca-Ski [29] = test: Increase in p53 protein level in human CaSki cells at 1 mM up to 48 hrs by Western blot; assay type: functional, cell-based
Ca-Ski [30] = test: Decrease in CDK1 protein expression in human CaSki cells at 1 mM by Western blot; assay type: functional, cell-based
Ca-Ski [31] = test: Decrease in CDK2 protein expression in human CaSki cells at 1 mM by Western blot; assay type: functional, cell-based
Ca-Ski [32] = test: Decrease in cyclin A protein expression in human CaSki cells at 1 mM by Western blot; assay type: functional, cell-based
Ca-Ski [33] = test: Decrease in cyclin B protein expression in human CaSki cells at 1 mM by Western blot; assay type: functional, cell-based
HeLa [34] = test: Decrease in CDK1 protein expression in human HeLa cells at 1 mM by Western blot; assay type: functional, cell-based
HeLa [35] = test: Decrease in CDK2 protein expression in human HeLa cells at 1 mM by Western blot; assay type: functional, cell-based
HeLa [36] = test: Decrease in cyclin A protein expression in human HeLa cells at 1 mM by Western blot; assay type: functional, cell-based
HeLa [37] = test: Decrease in cyclin B protein expression in human HeLa cells at 1 mM by Western blot; assay type: functional, cell-based
Ca-Ski [38] = test: Increase in Bax protein expression in human CaSki cells at 1 mM by Western blot; assay type: functional, cell-based
HeLa [39] = test: Increase in Bax protein expression in human HeLa cells at 1 mM by Western blot; assay type: functional, cell-based
Ca-Ski [40] = test: Decrease in Bcl2 protein expression in human CaSki cells at 1 mM by Western blot; assay type: functional, cell-based
HeLa [41] = test: Decrease in Bcl2 protein expression in human HeLa cells at 1 mM by Western blot; assay type: functional, cell-based
Ca-Ski [42] = test: Effect on Bcl-Xl protein expression in human CaSki cells at 1 mM by Western blot; assay type: functional, cell-based
HeLa [43] = test: Effect on Bcl-Xl protein expression in human HeLa cells at 1 mM by Western blot; assay type: functional, cell-based
Ca-Ski [44] = test: Induction of apoptosis in human CaSki cells assessed as chromatin condensation at 1 mM after 48 hrs by TUNEL/DAPI double staining; assay type: functional, cell-based
HeLa [45] = test: Induction of apoptosis in human HeLa cells assessed as chromatin condensation at 1 mM after 48 hrs by TUNEL/DAPI double staining; assay type: functional, cell-based
Ca-Ski [46] = test: Induction of apoptosis in human CaSki cells assessed as nuclear DNA fragmentation at 1 mM after 48 hrs by TUNEL/DAPI double staining; assay type: functional, cell-based
HeLa [47] = test: Induction of apoptosis in human HeLa cells assessed as nuclear DNA fragmentation at 1 mM after 48 hrs by TUNEL/DAPI double staining; assay type: functional, cell-based
Ca-Ski [48] = test: Induction of cytosolic cytochrome c accumulation in human CaSki cells at 1 mM by SDS-PAGE; assay type: functional, cell-based; settings: TDE = time-dependent effect
HeLa [49] = test: Induction of cytosolic cytochrome c accumulation in human HeLa cells at 1 mM by SDS-PAGE; assay type: functional, cell-based; settings: TDE = time-dependent effect
Ca-Ski [50] = test: Induction of apoptosis in human CaSki cells assessed as proteolytic activation of caspase 9 at 1 mM by SDS-PAGE; assay type: functional, cell-based
HeLa [51] = test: Induction of apoptosis in human HeLa cells assessed as proteolytic activation of caspase 9 at 1 mM by SDS-PAGE; assay type: functional, cell-based
Ca-Ski [52] = test: Induction of apoptosis in human CaSki cells assessed as proteolytic activation of caspase 3 at 1 mM by SDS-PAGE; assay type: functional, cell-based
HeLa [53] = test: Induction of apoptosis in human HeLa cells assessed as proteolytic activation of caspase 3 at 1 mM by SDS-PAGE; assay type: functional, cell-based
Ca-Ski [54] = test: Induction of apoptosis in human CaSki cells assessed as caspase 3 activation by fluorogenic substrate based assay after 24 hrs; assay type: functional, cell-based
HeLa [55] = test: Induction of apoptosis in human HeLa cells assessed as caspase 3 activation by fluorogenic substrate based assay after 24 hrs; assay type: functional, cell-based
Ca-Ski [56] = test: Induction of apoptosis in human CaSki cells assessed as caspase 9 activation by fluorogenic substrate based assay after 48 hrs; assay type: functional, cell-based
HeLa [57] = test: Induction of apoptosis in human HeLa cells assessed as caspase 9 activation by fluorogenic substrate based assay after 48 hrs; assay type: functional, cell-based

CCCCNC(=O)Cc1ccc(F)cc1
Activity (HeLa [1]): Dose-dependent effect
Activity (Ca-Ski [2]): tde
Activity (Ca-Ski [3]): 53.6%
Activity (Ca-Ski [4]): 27.7%
Activity (Ca-Ski [5]): 18.6%
Activity (Ca-Ski [6]): 5.6%
Activity (Ca-Ski [7]): 52.7%
Activity (Ca-Ski [8]): 21%
Activity (Ca-Ski [9]): 26.5%
Activity (Ca-Ski [10]): 6%
Activity (Ca-Ski [11]): 51.5%
Activity (Ca-Ski [12]): 19.9%
Activity (Ca-Ski [13]): 28.6%
Activity (Ca-Ski [14]): 13.2%
Activity (HeLa [15]): 31.2%
Activity (HeLa [16]): 46.9%
Activity (HeLa [17]): 22.1%
Activity (HeLa [18]): 1.9%
Activity (HeLa [19]): 42.6%
Activity (HeLa [20]): 28.9%
Activity (HeLa [21]): 28.5%
Activity (HeLa [22]): 23.6%
Activity (HeLa [23]): 30.6%
Activity (HeLa [24]): 22.7%
Activity (HeLa [25]): 46.7%
Activity (HeLa [26]): 28.2%
Activity (Ca-Ski [27]): Active
Activity (HeLa [28]): Active
Activity (Ca-Ski [29]): Active
Activity (Ca-Ski [30]): Active
Activity (Ca-Ski [31]): Active
Activity (Ca-Ski [32]): Active
Activity (Ca-Ski [33]): Active
Activity (HeLa [34]): Active
Activity (HeLa [35]): Active
Activity (HeLa [36]): Active
Activity (HeLa [37]): Active
Activity (Ca-Ski [38]): Active
Activity (HeLa [39]): Active
Activity (Ca-Ski [40]): Active
Activity (HeLa [41]): Active
Activity (Ca-Ski [42]): inactive
Activity (HeLa [43]): inactive
Activity (Ca-Ski [44]): Active
Activity (HeLa [45]): Active
Activity (Ca-Ski [46]): Active
Activity (HeLa [47]): Active
Activity (Ca-Ski [48]): tde
Activity (HeLa [49]): tde
Activity (Ca-Ski [50]): Active
Activity (HeLa [51]): Active
Activity (Ca-Ski [52]): Active
Activity (HeLa [53]): Active
Activity (Ca-Ski [54]): Active
Activity (HeLa [55]): Active
Activity (Ca-Ski [56]): Active
Activity (HeLa [57]): Active
